Measurements reported in ChEMBL document CHEMBL5512603, “Development of de-novo coronavirus 3-chymotrypsin-like protease (3CLpro) inhibitors since COVID-19 outbreak: A strategy to tackle challenges of persistent virus infection” (Eur J Med Chem, 2024).

Key:
[1] = biological target: T1, Replicase polyprotein 1ab (Severe acute respiratory syndrome coronavirus 2, UniProt P0DTD1); test: Inhibition of recombinant SARS-CoV2 6xHis-tag-Main protease containing modified HRV-3C expressed in Escherichia coli using Mca-AVLQSGFR-K(Dnp)K peptide substrate assessed as fluorescent intensity
[2] = Half life in rat; format: ADME; conditions: in vivo
SARS-CoV-2 [3] = test: Anti-viral activity against SARS-CoV-2 infected in K18-hACE2 mouse assessed as reduction in virus in lung at 100 mg/kg, ip twice daily measured after day 3; format: functional; conditions: Severe acute respiratory syndrome coronavirus 2, 72 h, time 3 day
[4] = Oral bioavailability in ICR mouse measured at 150 mg/kg upto 24 hrs by LC-MS/MS analysis; format: ADME, organism-based; conditions: in vivo
SARS-CoV-2 [5] = test: Antiviral activity against wild type SARS-CoV-2 infected in African green monkey VeroE6/TMPRSS2 cells at 1 MOI assessed as reduction in plaque formation measured after 48 hrs by measuring luciferase activity assay; format: functional, organism-based; conditions: Severe acute respiratory syndrome coronavirus 2, VeroE6/TMPRSS2, 48 h
SARS-CoV-2 [6] = test: Antiviral activity against SARS-CoV-2 P.3 (Theta) infected in African green monkey VeroE6/TMPRSS2 cells at 1 MOI assessed as reduction in plaque formation measured after 48 hrs by measuring luciferase activity assay; format: functional, organism-based; conditions: Severe acute respiratory syndrome coronavirus 2, P.3 (Theta), VeroE6/TMPRSS2, 48 h
[7] = Half life in ICR mouse measured at 150 mg/kg, po upto 24 hrs by LC-MS/MS analysis; format: ADME, organism-based; conditions: in vivo
SARS-CoV-2 [8] = test: Antiviral activity against SARS-CoV-2 B.1.1.7 (Alpha) infected in African green monkey VeroE6/TMPRSS2 cells at 1 MOI assessed as reduction in plaque formation measured after 48 hrs by measuring luciferase activity assay; format: functional, organism-based; conditions: Severe acute respiratory syndrome coronavirus 2, B.1.1.7 (Alpha), VeroE6/TMPRSS2, 48 h
SARS-CoV-2 [9] = test: Antiviral activity against SARS-CoV-2 B.1.617.1 (Kappa) infected in African green monkey VeroE6/TMPRSS2 cells at 1 MOI assessed as reduction in plaque formation measured after 48 hrs by measuring luciferase activity assay; format: functional, organism-based; conditions: Severe acute respiratory syndrome coronavirus 2, B.1.617.1 (Kappa), VeroE6/TMPRSS2, 48 h
[10] = AUC in ICR mouse measured at 150 mg/kg, po upto 24 hrs by LC-MS/MS analysis; format: ADME, organism-based; conditions: in vivo
SARS-CoV-2 [11] = test: Antiviral activity against SARS-CoV-2 Canada/Vido 01/2020 infected in African green monkey Vero E6 cells assessed as inhibition of viral replication incubated for 48 hrs by plaque reduction assay; format: functional, organism-based; conditions: Severe acute respiratory syndrome coronavirus 2, Canada/Vido 01/2020, Vero C1008, 48 h
SARS-CoV-2 [12] = test: Antiviral activity against SARS-CoV-2 Beta infected in African green monkey Vero E6 cells assessed as inhibition of virus induced cytopathic effect by MTT assay; format: functional, organism-based; conditions: Severe acute respiratory syndrome coronavirus 2, Beta, Vero C1008
[13] = Cmax in cynomolgus monkey at 5 mg/kg, po; format: ADME, organism-based, Macaca fascicularis; conditions: in vivo
SARS-CoV-2 [14] = test: Antiviral activity against wild type SARS-CoV-2 infected in African green monkey Vero E6 cells assessed as inhibition of virus induced cytopathic effect by MTT assay; format: functional, organism-based; conditions: Severe acute respiratory syndrome coronavirus 2, Vero C1008
SARS-CoV-2 [15] = test: Antiviral activity against SARS-CoV-2 Omicron BA.5 infected in African green monkey Vero E6 cells assessed as inhibition of virus induced cytopathic effect by MTT assay; format: functional, organism-based; conditions: Severe acute respiratory syndrome coronavirus 2, Omicron BA.5, Vero C1008
SARS-CoV-2 [16] = test: Antiviral activity against SARS-CoV-2 Delta infected in African green monkey Vero E6 cells assessed as inhibition of virus induced cytopathic effect by MTT assay; format: functional, organism-based; conditions: Severe acute respiratory syndrome coronavirus 2, Delta, Vero C1008
SARS-CoV-2 [17] = test: Antiviral activity against SARS-CoV-2 Alpha infected in African green monkey Vero E6 cells assessed as inhibition of virus induced cytopathic effect by MTT assay; format: functional, organism-based; conditions: Severe acute respiratory syndrome coronavirus 2, Alpha, Vero C1008
SARS-CoV-2 [18] = test: Antiviral activity against SARS-CoV-2 Omicron BA.1 infected in African green monkey Vero E6 cells assessed as inhibition of virus induced cytopathic effect by MTT assay; format: functional, organism-based; conditions: Severe acute respiratory syndrome coronavirus 2, Omicron BA.1, Vero C1008
[19] = Tmax in cynomolgus monkey at 5 mg/kg, po; format: ADME, organism-based, Macaca fascicularis; conditions: in vivo
[20] = AUC (0 to last) in cynomolgus monkey at 5 mg/kg, po; format: ADME, organism-based, Macaca fascicularis; conditions: in vivo
[21] = Half life in cynomolgus monkey at 5 mg/kg, po; format: ADME, organism-based, Macaca fascicularis; conditions: in vivo
SARS-CoV-2 [22] = test: Antiviral activity against SARS-CoV-2 infected in Caco-2-ACE2 assessed as inhibition of viral replication; format: functional, organism-based; conditions: Severe acute respiratory syndrome coronavirus 2, Caco-2-ACE2
[23] = biological target: T1, Replicase polyprotein 1ab; test: Inhibition of SARS-CoV-2 3CLp using fluorescent substrate by FRET assay
SARS-CoV-2 [24] = test: Antiviral activity against SARS-CoV-2 infected in African green monkey Vero E6 cells at 0.1 MOI assessed as inhibition of virus induced cytopathic effect by CCK8 assay; format: functional, organism-based; conditions: Severe acute respiratory syndrome coronavirus 2, Vero C1008
SARS-CoV-2 [25] = test: Antiviral activity against wild type SARS-CoV-2 infected in human Calu-3 cells; format: functional, organism-based; conditions: Severe acute respiratory syndrome coronavirus 2, Calu-3
[26] = biological target: T1, Replicase polyprotein 1ab; test: Inhibition of SARS-CoV-2 Main protease assessed as hydrolysis of quenched fluorogenic substrate
SARS-CoV-2 [27] = test: Antiviral activity against SARS-CoV-2 infected in African green monkey Vero E6 cells assessed as inhibition of viral replication incubated by plaque reduction assay; format: functional, organism-based; conditions: Severe acute respiratory syndrome coronavirus 2, Vero C1008
[28] = Oral bioavailability in Sprague-Dawley rat at 10 mg/kg; format: ADME, organism-based; conditions: in vivo
[29] = biological target: T1, Replicase polyprotein 1ab; test: Inhibition of recombinant SARS-CoV-2 3CLp using fluorogenic substrate by microplate reader
[30] = Cmax in po dosed rat; format: ADME, organism-based; conditions: in vivo
[31] = Tmax in po dosed rat; format: ADME, organism-based; conditions: in vivo
[32] = AUClast in po dosed rat; format: ADME, organism-based; conditions: in vivo
[33] = Half life in po dosed rat; format: ADME, organism-based; conditions: in vivo
[34] = Oral bioavailability in rat; format: ADME, organism-based; conditions: in vivo
SARS-CoV-2 [35] = test: Antiviral activity against SARS-CoV-2 Delta; format: functional; conditions: Severe acute respiratory syndrome coronavirus 2, Delta

Structure (SMILES): COC(=O)Cn1sc2ccccc2c1=O
- IC50 [1]: 2830 nM

Structure (SMILES): O=C[C@H](C[C@@H]1CCNC1=O)NC(=O)[C@H](CC1CCCCC1)NC(=O)c1cc2ccccc2[nH]1
- half-life [2]: > 4 h
- inhibition in vivo at 100 mg/kg (SARS-CoV-2 [3]): 100%

Structure (SMILES): [2H][C@](C(=O)N[C@@H](C)c1ccc(F)cc1)(c1cccnc1)N(C(=O)C(C)=O)c1ccc2c(c1)oc1ccccc12
- bioavailability [4]: 92.9%
- EC50 (SARS-CoV-2 [5]): 11.4 nM
- EC50 (SARS-CoV-2 [6]): 23.7 nM
- half-life [7]: 1.42 h
- EC50 (SARS-CoV-2 [8]): 20.3 nM
- EC50 (SARS-CoV-2 [9]): 34.4 nM
- AUC at 24 h [10]: 29200 ng·h/mL

Structure (SMILES): COc1cccc2[nH]c(C(=O)N[C@@H](CC(C)C)C(=O)N[C@H](C#N)C[C@@H]3CCNC3=O)cc12
- EC50 (SARS-CoV-2 [11]): > 5000 nM

Structure (SMILES): O=C(NC1CCCC1)C(=O)[C@H](C[C@@H]1CCNC1=O)NC(=O)[C@@H]1[C@H]2CCC[C@H]2CN1C(=O)[C@@H](NC(=O)C(F)(F)F)C1CCCCC1
- EC50 (SARS-CoV-2 [12]): 277 nM
- Cmax [13]: 102 nM
- EC50 (SARS-CoV-2 [14]): 95 nM
- EC50 (SARS-CoV-2 [15]): 130 nM
- EC50 (SARS-CoV-2 [16]): 97 nM
- EC50 (SARS-CoV-2 [17]): 130 nM
- EC50 (SARS-CoV-2 [18]): 86 nM
- Tmax [19]: 1.5 h
- AUC(0-t) [20]: 0.458 µM·h
- half-life [21]: 14.9 h

Structure (SMILES): O=C[C@@H](C[C@H]1CCNC1=O)NC(=O)[C@H]1[C@@H]2CCC[C@@H]2CN1C(=O)OCc1ccccc1
- EC50 (SARS-CoV-2 [22]): 5240 nM
- IC50 [23]: 51 nM
- EC50 (SARS-CoV-2 [24]): 2560 nM

Structure (SMILES): C[C@H](NC(=O)[C@@H](c1cccnc1)N(C(=O)CC#N)c1ccc(-c2ccccc2)cc1)c1ccccc1
- EC50 (SARS-CoV-2 [25]): 2920 nM
- IC50 [23]: 500 nM

Structure (SMILES): O=c1c2cccc(Br)c2sn1-c1ccccc1
- IC50 [1]: > 100000 nM

Structure (SMILES): Cc1c(Br)cncc1NC[C@@H](N)CC1CCCCC1
- IC50 [26]: 7500 nM

Structure (SMILES): O=C1NCC[C@H]1C[C@H](NC(=O)[C@@H]1[C@H]2CCC[C@H]2CN1C(=O)COc1ccc(Cl)cc1Cl)C(=O)CF
- EC50 (SARS-CoV-2 [27]): 240 nM
- bioavailability [28]: 55.1%
- IC50 [29]: 18 nM

Structure (SMILES): Cn1cc2cc(/N=c3\[nH]c(=O)n(Cc4cnn[nH]4)c(=O)n3Cc3cc(F)c(F)cc3F)c(Cl)cc2n1
- Cmax [30]: 6270 ng/mL
- Tmax [31]: 1 h
- AUC(0-t) [32]: 32600 ng·h/mL
- half-life [33]: 2.51 h
- bioavailability [34]: 88.1%

Structure (SMILES): N#C[C@H](C[C@@H]1CCCNC1=O)NC(=O)[C@H](CC1CC1)NC(=O)c1cc2cccc(Cl)c2[nH]1 [POMOTRELVIR]
- EC90 (SARS-CoV-2 [35]): 78 nM
